According to patent US20030224942A1, “Alkylamino-1,3,5-triazines, processes for their preparation and their use as herbicides and plant growth regulators” (priority 2001, published 2003):

Assays:
[1] = system: Chenopodium spp., Papaver spp., Polygonum spp., Veronica spp. or Viola spp.; test: Post-emergence effect on weeds (greenhouse pot test, visual scoring); format: in vivo, monocotyledonous and dicotyledonous weeds; details: treated at three-leaf stage; visual scoring after about 3 to 4 weeks; application rate of 0.5 kg and less of active substance per hectare
[2] = system: Cyperus spp., Echinochloa spp., Digitaria spp., Sagitaria spp. and Scirpus spp.; test: Action on harmful plants in rice (paddy rice conditions, visual scoring); format: in vivo, typical rice weeds (gramineous and broad-leaved); details: applied into the dammed water, visual scoring about three weeks after application
Outline: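 Under paddy conditions with 2-3 cm dammed water, transplanted and sown rice plus weeds were treated at three-leaf stage (E. crus-galli at 1.5 leaves). Pots stayed in greenhouse under optimum growth conditions for the test period, with visual assessment of damage.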

CC(C)c1nc(N)nc(NC(C)c2cccc(C3CC3)c2)n1 (centres unmarked) [Product P12.1603]
herbicidal activity post-emergence against harmful plants [1]: very good herbicidal activity | herbicidal activity against harmful plants which are typical for rice crops [2]: very good herbicidal activity

CC(C)c1nc(N)nc(NC(C)c2ccc(C3CC3)cc2)n1 (centres unmarked) [Product P12.1604]
herbicidal activity post-emergence against harmful plants [1]: very good herbicidal activity | herbicidal activity against harmful plants which are typical for rice crops [2]: very good herbicidal activity

C#Cc1ccc(C(C)Nc2nc(N)nc(C(C)C)n2)cc1F (centres unmarked) [Product P12.1620]
herbicidal activity post-emergence against harmful plants [1]: very good herbicidal activity | herbicidal activity against harmful plants which are typical for rice crops [2]: very good herbicidal activity

C#Cc1cc(C(Nc2nc(N)nc(C(C)C)n2)C2CC2)ccc1F (centres unmarked) [Product P14.309]
herbicidal activity post-emergence against harmful plants [1]: very good herbicidal activity | herbicidal activity against harmful plants which are typical for rice crops [2]: very good herbicidal activity

C#Cc1c(F)cc(C(Nc2nc(N)nc(C(C)C)n2)C2CC2)cc1F (centres unmarked) [Product P14.352]
herbicidal activity post-emergence against harmful plants [1]: very good herbicidal activity | herbicidal activity against harmful plants which are typical for rice crops [2]: very good herbicidal activity

CC#Cc1cc(C(Nc2nc(N)nc(C(C)C)n2)C2CC2)ccc1F (centres unmarked) [Product P14.384]
herbicidal activity post-emergence against harmful plants [1]: very good herbicidal activity | herbicidal activity against harmful plants which are typical for rice crops [2]: very good herbicidal activity

CC#Cc1c(F)cc(C(Nc2nc(N)nc(C(C)C)n2)C2CC2)cc1F (centres unmarked) [Product P14.428]
herbicidal activity post-emergence against harmful plants [1]: very good herbicidal activity | herbicidal activity against harmful plants which are typical for rice crops [2]: very good herbicidal activity

CC(C)c1nc(N)nc(NC(c2cccc(C(F)=C(F)F)c2)C2CC2)n1 (centres unmarked) [Product P14.1567]
herbicidal activity post-emergence against harmful plants [1]: very good herbicidal activity | herbicidal activity against harmful plants which are typical for rice crops [2]: very good herbicidal activity

CC(C)c1nc(N)nc(NC(c2ccc(C(F)=C(F)F)cc2)C2CC2)n1 (centres unmarked) [Product P14.1568]
herbicidal activity post-emergence against harmful plants [1]: very good herbicidal activity | herbicidal activity against harmful plants which are typical for rice crops [2]: very good herbicidal activity

C#Cc1cccc(C(Nc2nc(N)nc(C(C)C)n2)C2CC2)c1 (centres unmarked) [Product P14.1579]
herbicidal activity post-emergence against harmful plants [1]: very good herbicidal activity | herbicidal activity against harmful plants which are typical for rice crops [2]: very good herbicidal activity

C#Cc1ccc(C(Nc2nc(N)nc(C(C)C)n2)C2CC2)cc1 (centres unmarked) [Product P14.1580]
herbicidal activity post-emergence against harmful plants [1]: very good herbicidal activity | herbicidal activity against harmful plants which are typical for rice crops [2]: very good herbicidal activity

CC#Cc1cccc(C(Nc2nc(N)nc(C(C)C)n2)C2CC2)c1 (centres unmarked) [Product P14.1582]
herbicidal activity post-emergence against harmful plants [1]: very good herbicidal activity | herbicidal activity against harmful plants which are typical for rice crops [2]: very good herbicidal activity

CC#Cc1ccc(C(Nc2nc(N)nc(C(C)C)n2)C2CC2)cc1 (centres unmarked) [Product P14.1583]
herbicidal activity post-emergence against harmful plants [1]: very good herbicidal activity | herbicidal activity against harmful plants which are typical for rice crops [2]: very good herbicidal activity

CC(C)c1nc(N)nc(NC(c2cccc(C3CC3)c2)C2CC2)n1 (centres unmarked) [Product P14.1603]
herbicidal activity post-emergence against harmful plants [1]: very good herbicidal activity | herbicidal activity against harmful plants which are typical for rice crops [2]: very good herbicidal activity

CC(C)c1nc(N)nc(NC(c2ccc(C3CC3)cc2)C2CC2)n1 (centres unmarked) [Product P14.1604]
herbicidal activity post-emergence against harmful plants [1]: very good herbicidal activity | herbicidal activity against harmful plants which are typical for rice crops [2]: very good herbicidal activity

CC(C)(F)c1nc(N)nc(NCc2ccc(F)c(C(F)=C(F)F)c2)n1 [Product P16.5]
herbicidal activity post-emergence against harmful plants [1]: very good herbicidal activity | herbicidal activity against harmful plants which are typical for rice crops [2]: very good herbicidal activity

CC(C)(F)c1nc(N)nc(NCc2cc(F)c(C(F)=C(F)F)c(F)c2)n1 [Product P16.49]
herbicidal activity post-emergence against harmful plants [1]: very good herbicidal activity | herbicidal activity against harmful plants which are typical for rice crops [2]: very good herbicidal activity

C#Cc1cc(CNc2nc(N)nc(C(C)(C)F)n2)ccc1F [Product P16.309]
herbicidal activity post-emergence against harmful plants [1]: very good herbicidal activity | herbicidal activity against harmful plants which are typical for rice crops [2]: very good herbicidal activity

C#Cc1c(F)cc(CNc2nc(N)nc(C(C)(C)F)n2)cc1F [Product P16.352]
herbicidal activity post-emergence against harmful plants [1]: very good herbicidal activity | herbicidal activity against harmful plants which are typical for rice crops [2]: very good herbicidal activity

CC#Cc1cc(CNc2nc(N)nc(C(C)(C)F)n2)ccc1F [Product P16.384]
herbicidal activity post-emergence against harmful plants [1]: very good herbicidal activity | herbicidal activity against harmful plants which are typical for rice crops [2]: very good herbicidal activity

CC#Cc1c(F)cc(CNc2nc(N)nc(C(C)(C)F)n2)cc1F [Product P16.428]
herbicidal activity post-emergence against harmful plants [1]: very good herbicidal activity | herbicidal activity against harmful plants which are typical for rice crops [2]: very good herbicidal activity

CC(C)(F)c1nc(N)nc(NCc2ccc(F)c(C3CC3)c2)n1 [Product P16.916]
herbicidal activity post-emergence against harmful plants [1]: very good herbicidal activity | herbicidal activity against harmful plants which are typical for rice crops [2]: very good herbicidal activity

CC(C)(F)c1nc(N)nc(NCc2cc(F)c(C3CC3)c(F)c2)n1 [Product P16.960]
herbicidal activity post-emergence against harmful plants [1]: very good herbicidal activity | herbicidal activity against harmful plants which are typical for rice crops [2]: very good herbicidal activity

CC(C)(F)c1nc(N)nc(NCc2cccc(C(F)=C(F)F)c2)n1 [Product P16.1567]
herbicidal activity post-emergence against harmful plants [1]: very good herbicidal activity | herbicidal activity against harmful plants which are typical for rice crops [2]: very good herbicidal activity

CC(C)(F)c1nc(N)nc(NCc2ccc(C(F)=C(F)F)cc2)n1 [Product P16.1568]
herbicidal activity post-emergence against harmful plants [1]: very good herbicidal activity | herbicidal activity against harmful plants which are typical for rice crops [2]: very good herbicidal activity

C#Cc1cccc(CNc2nc(N)nc(C(C)(C)F)n2)c1 [Product P16.1579]
herbicidal activity post-emergence against harmful plants [1]: very good herbicidal activity | herbicidal activity against harmful plants which are typical for rice crops [2]: very good herbicidal activity

C#Cc1ccc(CNc2nc(N)nc(C(C)(C)F)n2)cc1 [Product P16.1580]
herbicidal activity post-emergence against harmful plants [1]: very good herbicidal activity | herbicidal activity against harmful plants which are typical for rice crops [2]: very good herbicidal activity

CC#Cc1cccc(CNc2nc(N)nc(C(C)(C)F)n2)c1 [Product P16.1582]
herbicidal activity post-emergence against harmful plants [1]: very good herbicidal activity | herbicidal activity against harmful plants which are typical for rice crops [2]: very good herbicidal activity
